Results on five compounds are retold here after paper PMC11551755, “Structure-based discovery of first inhibitors targeting the helicase activity of human PIF1” (Nucleic Acids Research, 2024).

For assay [1], the target named is T1, hPIF1HD V258A (Homo sapiens, UniProt Q9H611, V258A).
T1 construct: The human PIF1 helicase domain and mutants (hPIF1HD, residues 206–620); hexa-histidine tag (N, cleaved yes); made in house; host or cells: ArcticExpress BL21(DE3) E. coli (Agilent Technologies)
T1 sequence (Q9H611 206-620 V258A): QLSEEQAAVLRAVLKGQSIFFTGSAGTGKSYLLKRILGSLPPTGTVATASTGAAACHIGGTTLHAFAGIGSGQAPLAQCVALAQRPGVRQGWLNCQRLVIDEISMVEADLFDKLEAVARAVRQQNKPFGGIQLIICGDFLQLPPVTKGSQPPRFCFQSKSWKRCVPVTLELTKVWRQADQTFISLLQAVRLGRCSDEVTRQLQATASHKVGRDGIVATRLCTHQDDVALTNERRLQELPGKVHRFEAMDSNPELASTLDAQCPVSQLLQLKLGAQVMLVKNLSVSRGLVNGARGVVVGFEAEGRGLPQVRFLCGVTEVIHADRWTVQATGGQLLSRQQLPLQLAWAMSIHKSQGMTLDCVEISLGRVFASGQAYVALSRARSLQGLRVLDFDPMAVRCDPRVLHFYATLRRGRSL
The assay can be described thus: ssDNA d(T)55 binding assay (EMSA), hPIF1HD V258A variant. The conditions noted are these: 0.25 nM d(T)55, 2 nM protein, 5 mM AMP-PNP, 0.0078–2 mM compound; read-out: IC50 for inhibition of ssDNA binding, V258A. The protocol: (§1) DNA binding of hPIF1HD was assayed using a ^32P-5′ end-labelled oligo d(T)55 substrate (0.25 nM), under the same buffer conditions described for helicase assays, but with AMP-PNP instead of ATP. Reaction products were resolved on 5% poly-acrylamide gels (29:1 acrylamide:bis-acrylamide) using 0.25× TBE running buffer ([19],[28]). Gels were processed and reaction products quantified by phosphorimaging and IC50 values determined as described above.
(§2) In hPIF1HD/AMP-PNP/1 there are no direct hydrogen bonds between amino acid side chains and 1, however, Val 258 from domain 1A is making van der Waals interaction (<3.8 Å) with the amide group at one end of the molecule (Figure 1). From the structural data, we reasoned that substitution of the Val 258 with alanine (V258A) would increase the size of the binding pocket and its accessibility to ligand, while substitution with leucine (V258L) would decrease pocket size and possibly instigate a clash with Lys 556, disrupting interactions with compound 1 or derivatives. Accordingly, we purified hPIF1HD V258A and V258L variant forms and analysed ssDNA d(T)55 binding in the presence of SMIs, using EMSA as above.
(§3) Supplementary Figure 12. hPIF1HD variants V258A and V258L ssDNA binding IC50 determination by EMSA with selected SMIs. All binding reactions were assembled under helicase reaction conditions but with 0.25 nM radiolabelled oligo d(T)55, and 5 mM AMP-PNP. (A) DNA binding activity of wild type and mutant proteins was assessed by EMSA without inhibitors. […] 1D: Wild type (WT), V258A and V258L, not determined. 2: WT, 224 ± […]; V258A, 103 ± 31 µM; V258L, 304 ± 88 µM. 5: WT, 198 ± 54 µM; V258A, 79.2 ± 27 µM; V258L, 414 ± 45 µM. 6: WT, 722 ± 194 µM; V258A, 295 ± 116 µM; V258L, 1010 ± 282 µM. 10: WT, 224 ±59 µM; V258A, 152 ± 42 µM; V258L, 378 ± 99 µM. 11: WT, 284 ± 110 µM; V258A, 151 ± 51 µM; V258L, 551 ± 215 µM.

Assay [2] concerns the target T2, hPIF1HD V258L (Homo sapiens, UniProt Q9H611, V258L).
T2 construct: The human PIF1 helicase domain and mutants (hPIF1HD, residues 206–620); hexa-histidine tag (N, cleaved yes); made in house; host or cells: ArcticExpress BL21(DE3) E. coli (Agilent Technologies)
T2 sequence (Q9H611 206-620 V258L): T1 sequence (Q9H611 206-620 V258A) with A53L
Description: ssDNA d(T)55 binding assay (EMSA), hPIF1HD V258L variant. The conditions noted are these: 0.25 nM d(T)55, 2 nM protein, 5 mM AMP-PNP, 0.0078–2 mM compound; read-out: IC50 for inhibition of ssDNA binding, V258L. The procedure: as §1, §2, §3
In general terms: A gel shift assay detects complexes by their altered migration in electrophoresis.

Molecules are shown by their SMILES. Positions count from the first letter of the chain named.

On to `CC(=O)c1ccc(-c2csc(N)n2)cc1` [Compound 2], for which the values for the IC50 in assay [1] and in assay [2] were 103 ± 31 µM and 304 ± 88 µM, respectively.
The corresponding values for `N#Cc1ccc(-c2csc(N)n2)cc1` [Compound 5] are 79.2 ± 27 µM and 414 ± 45 µM.
The like results for `Nc1nc(-c2ccc(C(=O)c3ccccc3)cc2)cs1` [Compound 6] were, in that order, 295 ± 116 µM and 1010 ± 282 µM.
The like results for `CC(=O)Nc1ccc(-c2csc(N)n2)cc1-c1ccc(C)cc1` [Compound 10] were, in that order, 152 ± 42 µM and 378 ± 99 µM.
For the compound `CC(=O)Nc1ccc(-c2csc(N)n2)cc1C1=CCNCC1` [Compound 11], the IC50 (in general, the midpoint of a concentration-inhibition curve) in assay [1] worked out at 151 ± 51 µM; in assay [2] it was 551 ± 215 µM.
